# Key:
# Format in all cases: cell-based
# human PMN [1] = test: PMN cytosolic calcium ([Ca2+]i) flux
# Description: (§1) PMN isolation (Hauser et al., J. Leukoc. Biol. 69:63-68, 2001; Fekete et al., Shock 16:15-20, 2001), cytosolic calcium studies (Hauer et al., J. Leukoc. Biol. 69:63-68, 2001; Hauser et al., J. Trauma 48:592-598, 2000; Tarlowe et al., J. Immunol. 171:2066-2073, 2003; Grynkiewicz et al., J. Biol. Chem. 260:2440-2450, 1985), IL-8 synthesis measurement by ELISA (Zallen et al., J. Trauma 46:42-48, 1999), cell signaling by Western blots (Zhang et al., Life Sci. 77:3068-3077, 2005), transwell chemotaxis (Tarlowe et al., J. Immunol. 171:2066-2073, 2003), and video-microscopy chemotaxis assays (Chen et al., Science 314:1792-1795, 2006) were performed as previously described.
# Study data was assessed for statistical significance using Student's (unpaired) t-test or Analysis of Variance (ANOVA) where appropriate using a SigmaStat program with post-hoc tests chosen by the computer. [Ca^2+]i transients are reported as the mean change from basal [Ca^2+]i in nanomoles per liter (nM/L). Prolonged [Ca^2+]i fluxes are reported as the area under the curve (AUC) of measured change from basal [Ca^2+]i over the observation period (nM·sec). All data are reported as mean±s.e.m. with significance accepted at p<0.05.
# PMN = conditions: for PMN chemotaxis to the agent: MTD 100 μg/ml, mtDNA 10 μg/ml, CpG DNA 10 μg/ml, LPS 1 μg/ml
# Description: as §1
# Time-lapse video-microscopic chemotaxis was assayed as described previously (Chen et al., Science 314:1792-1795, 2006). Cells were exposed to a chemoattractant gradient field by slowly releasing MTD (˜100 μg/ml) or fMLF (10 nM) from a micropipette tip placed in proximity to the cells. The migration paths of individual cells were plotted using Adobe Illustrator. […] Experiments were repeated with multiple PMN and MTD isolates.
# human PMN [2] = test: PMN p38 and p44/42 MAPK phosphorylation (Western blot); conditions: chloroquine 10 μg/mL
# Method: (§2) PMN degranulation was assessed by measuring MMP-8 release. Human PMNs were suspended in HBSS with 1.8 mM Ca^2+ at 37° C. for 10 minutes while exposed to MTD, mtDNA, or fMLF at indicated concentrations. […] After stimulation, PMN were placed on ice and centrifuged. Supernatants were then assayed for MMP-8 by Western blot. Residual PMN were lysed to assay for MAPKs.
# (§3) PMN activation was assessed by measuring MMP-8/9 degranulation and intracellular MAPK phosphorylation. Human PMN were exposed to mtDNA and nDNA at 1-100 μg/mL, 30 minutes at 37° C. After stimulation, PMN were placed on ice and centrifuged (10,000 g at 4° C. for 2 minutes) to obtain supernatants, which were then assayed for MMP-8 and MMP-9 by Western blot as described below. M-PER (Pierce, Rockford, Ill.) was then used to lyse the PMN cell pellets for determination of total and phosphorylated MAPKs by Western blot as described below. Total protein concentration of the lysates was determined by BCA assay.
# (§4) Rat liver homogenates and supernatants from human PMN or human PMN lysates were boiled for 5 minutes in SDS sample buffer. Proteins were separated by SDS-PAGE using a […] polyacrylamide gel. Tris-glycine polyacrylamide gradient gels were purchased from Novex (San Diego, Calif.). Separated proteins were transferred to nitrocellulose membrane (0.45 μm pore size; Bio-Rad, Hercules, Calif.). […]
# human PMN [3] = conditions: mtDNA 100 μg/mL; preincubation with chloroquine 10 μg/mL
# Method: as §2, §3, §4
molecule,measurement,setting,value
Nc1ncnc2c1ncn2[C@@H]1O[C@H](COP(=O)(O)OP(=O)(O)OP(=O)(O)O)[C@@H](O)[C@H]1O [ATP],PMN [Ca2+]i mobilization,human PMN [1]; 1 μM,mobilizes
"C/C=C/C[C@@H](C)[C@@H](O)[C@H]1C(=O)N[C@@H](CC)C(=O)N(C)CC(=O)N(C)[C@@H](CC(C)C)C(=O)N[C@@H](C(C)C)C(=O)N(C)[C@@H](CC(C)C)C(=O)N[C@@H](C)C(=O)N[C@H](C)C(=O)N(C)[C@@H](CC(C)C)C(=O)N(C)[C@@H](CC(C)C)C(=O)N(C)[C@H](C(C)C)C(=O)N1C [CsH, Cyclosporin H]",FPR-induced calcium depletion,human PMN [1]; human PMN,specifically inhibits
same,"PMN migrating to fMLF, effect of inhibitor","PMN; CsH 1 μM, fMLF 10 nM",significantly inhibits
same,"PMN chemotaxis to IL-8, effect of inhibitor","PMN; CsH, IL-8 10 nM",no effects
CCN(CC)CCCC(C)Nc1ccnc2cc(Cl)ccc12 (stereo not drawn) [chloroquine],"phosphorylation of p38 MAPK in response to mtDNA, effect of inhibitor",human PMN [2]; mtDNA 100 μg/mL,not inhibited
same,"p38 MAPK responses to mtDNA, effect of inhibitor","human PMN [2]; mtDNA 1 and 5 μg/mL, 30 minutes, 37° C.",markedly inhibited
same,"mtDNA-induced release of MMP-8 and -9, effect of inhibitor",human PMN [3],suppressed
"CSCC[C@H](NC=O)C(=O)N[C@@H](CC(C)C)C(=O)N[C@@H](Cc1ccccc1)C(=O)O [fMLF, N-formyl-methionyl-leucyl-phenylalanine]",PMN chemotaxis to the agent,"PMN; fMLF 10 nM, IL-8 10 nM",shows chemotaxis
IL-8: chemokine used as chemoattractant,PMN chemotaxis to the agent,"PMN; fMLF 10 nM, IL-8 10 nM",shows chemotaxis

# Source: patent US20120263736A1, “METHOD FOR PREDICTING AND TREATING A STERILE INFLAMMATION AND DISCRIMINATING BETWEEN STERILE AND INFECTIVE INFLAMMATION” (Beth Israel Deaconess Medical Center, Inc., priority 2009, published 2012)
